# Columns and labels:
# KK-A^y mice = assay: Effects on carbohydrate and lipid metabolism in KK-A^y mouse; type: in vivo; details: oral, 4 days; for Percent change of each parameter compared to control group (%): AI: Atherogenic Index = (TC − HDL-C)/HDL-C; for Percent change of each parameter compared to control group (%): BG: plasma glucose level; for Percent change of each parameter compared to control group (%): Ins: plasma insulin level; for Percent change of each parameter compared to control group (%): TG: plasma triglyceride level; for Percent change of each parameter compared to control group (%): HDL-C: serum HDL-C level; for Percent change of each parameter compared to control group (%): (V)LDL-C: sum of VLDL-C and LDL-C level in serum
# Method: The experiment was conducted using the compounds described in the Examples as test compounds and Troglitazone (5-[4-(6-hydroxy-2,5,7,8-tetramethylchroman-2-ylmethoxy)benzyl]-2,4-thiazolidinedione) as a control compound.
# Each test compound was orally administered to KK-A^y mice (10 week old, male), NIDDM model animal, for 4 days at a given dosage. On the next day of the last administration, blood was collected from tail end blood vessels under non-fasting conditions to prepare heparinized plasma. Thereafter, blood was collected from an abdominal large vein under pentobarbital anesthesia to prepare serum. The glucose level (BG), triglyceride level (TG) and insulin level (Ins) in plasma were measured using a glucose CII-test Wako (Wako Pure Chemical Industries, Ltd), CLINTECH TG-S (IATORON LABORATORIES, INC.) or triglyceride E-test WAKO (Wako Pure Chemical Industries, Ltd), and a rat insulin measurement kit (Morinaga Biochemistry Research Institute) or REBIS-insulin-mouse-T (Mouse Insulin ELISA (TMB) KIT, Shibayagi Co., Ltd), respectively. Also, the sum of VLDL-C level and LDL-C level in serum (hereinafter, referred to as “(V)LDL-C”), total cholesterol level (TC) and HDL-C level were measured using a high performance liquid chromatography system for the measurement of lipoprotein cholesterol (TOSOH CORPORATION). (V)LDL-C level was measured because VLDL-C and LDL-C cannot be measured separately. Atherogenic Index (AI) was calculated according to the following formula: AI=[(TC level)−(HDL-C level)]/(HDL-C level).
structure (smiles),measurement,setting,value
"CCc1oc(-c2ccccc2)nc1CCCCCCOC(C)(C)C(=O)O [Example 42, 2-[6-(5-Ethyl-2-phenyloxazol-4-yl)hexyloxy]-2-methylpropionic acid]",melting point,,88.5 to 89 °C
"CC(C)(OCCCCCCCc1coc(-c2ccc(F)cc2)n1)C(=O)O [Example 47, 2-{7-[2-(4-Fluorophenyl)oxazol-4-yl]heptyloxy}-2-methylpropionic acid]",melting point,,67 to 74 °C
"Cc1oc(-c2ccccc2)nc1CCCCCOC(C)(C)C(=O)O (hydrate or solvate) [Example 34, 2-Methyl-2-[5-(5-methyl-2-phenyloxazol-4-yl)pentyloxy]propionic acid]",melting point,,66 to 68 °C
"Cc1oc(-c2ccc(C(C)(C)C)cc2)nc1CCCCCCOC(C)(C)C(=O)O [Example 41, 2-{6-[2-(4-tert-Butylphenyl)-5-methyloxazol-4-yl]hexyloxy}-2-methylpropionic acid]",melting point,,89 to 91 °C
"CC(C)(OCCCCCCc1coc(-c2ccc(F)cc2)n1)C(=O)O [Example 48, 2-{6-[2-(4-Fluorophenyl)oxazol-4-yl]hexyloxy}-2-methylpropionic acid]",melting point,,80 to 83 °C
"CC(C)(OCCCCCCc1coc(-c2ccccc2)n1)C(=O)O [Example 43, 2-Methyl-2-[6-(2-phenyloxazol-4-yl)hexyloxy]propionic acid]",melting point,,75 to 77 °C
"Cc1oc(-c2ccc(F)cc2)nc1CCCCCCOC(C)(C)C(=O)O [Example 40, 2-{6-[2-(4-Fluorophenyl)-5-methyloxazol-4-yl]hexyloxy}-2-methylpropionic acid]",melting point,,64 to 67 °C
"Cc1oc(-c2ccccc2)nc1CCCCCCCOC(C)(C)C(=O)O [Example 36, 2-Methyl-2-[7-(5-methyl-2-phenyloxazol-4-yl)heptyloxy]propionic acid]",melting point,,70 to 71 °C
"CC(C)(OCCCCCCCc1csc(-c2ccccc2)n1)C(=O)O [Example 49, 2-Methyl-2-[7-(2-phenylthiazol-4-yl)heptyloxy]propionic acid]",melting point,,71 to 72 °C
"CC(C)(OCCCCCCCc1coc(-c2ccccc2)n1)C(=O)O [Example 44, 2-Methyl-2-[7-(2-phenyloxazol-4-yl)heptyloxy]propionic acid]",melting point,,72 to 75 °C
"COc1ccc(-c2nc(CCCCC3COC(C)(C(=O)O)OC3)c(C)o2)cc1 (stereo not shown) [Example 74, 2-Methyl-c-5-{4-[5-methyl-2-(4-methoxyphenyl)oxazol-4-yl]butyl}-1,3-dioxane-r-2-carboxylic acid]",Percent change of each parameter compared to control group (%): AI,KK-A^y mice; dose 3 mg/kg,−72%
same,Percent change of each parameter compared to control group (%): BG,KK-A^y mice; dose 3 mg/kg,−18%
same,Percent change of each parameter compared to control group (%): Ins,KK-A^y mice; dose 3 mg/kg,−33%
same,Percent change of each parameter compared to control group (%): TG,KK-A^y mice; dose 3 mg/kg,−46%
same,Percent change of each parameter compared to control group (%): HDL-C,KK-A^y mice; dose 3 mg/kg,55%
same,Percent change of each parameter compared to control group (%): (V)LDL-C,KK-A^y mice; dose 3 mg/kg,−58%
"Cc1ccc(-c2nc(CCCCC3COC(C)(C(=O)O)OC3)c(C)s2)cc1 (stereo not shown) [Example 70, 2-Methyl-c-5-{4-[5-methyl-2-(p-tolyl)thiazol-4-yl]-butyl}-1,3-dioxane-r-2-carboxylic acid]",Percent change of each parameter compared to control group (%): AI,KK-A^y mice; dose 3 mg/kg,−53%
same,Percent change of each parameter compared to control group (%): BG,KK-A^y mice; dose 3 mg/kg,−15%
same,Percent change of each parameter compared to control group (%): Ins,KK-A^y mice; dose 3 mg/kg,5%
same,Percent change of each parameter compared to control group (%): TG,KK-A^y mice; dose 3 mg/kg,−37%
same,Percent change of each parameter compared to control group (%): HDL-C,KK-A^y mice; dose 3 mg/kg,41%
same,Percent change of each parameter compared to control group (%): (V)LDL-C,KK-A^y mice; dose 3 mg/kg,−33%
"Cc1oc(-c2ccccc2)nc1CC#CCCCOC(C)(C)C(=O)O [Example 38, 2-Methyl-2-[6-(5-methyl-2-phenyloxazol-4-yl)-4-hexynyloxy]propionic acid]",Percent change of each parameter compared to control group (%): AI,KK-A^y mice; dose 1 mg/kg,−65%
same,Percent change of each parameter compared to control group (%): BG,KK-A^y mice; dose 1 mg/kg,−21%
same,Percent change of each parameter compared to control group (%): Ins,KK-A^y mice; dose 1 mg/kg,−39%
same,Percent change of each parameter compared to control group (%): TG,KK-A^y mice; dose 1 mg/kg,−50%
same,Percent change of each parameter compared to control group (%): HDL-C,KK-A^y mice; dose 1 mg/kg,38%
same,Percent change of each parameter compared to control group (%): (V)LDL-C,KK-A^y mice; dose 1 mg/kg,−38%
"Cc1oc(-c2ccncc2)nc1CCCCCCOC(C)(C)C(=O)O [Example 51, 2-Methyl-2-{6-[5-methyl-2-(4-pyridyl)oxazol-4-yl]hexyloxy}propionic acid]",melting point,,91 to 93 °C
"CC1(C(=O)O)OCC(CCCCc2coc(-c3ccccc3)n2)CO1 (stereo not shown) [Example 14, 2-Methyl-c-5-[4-(2-phenyloxazol-4-yl)butyl]-1,3-dioxane-r-2-carboxylic acid]",Percent change of each parameter compared to control group (%): AI,KK-A^y mice; dose 1 mg/kg,−45%
same,Percent change of each parameter compared to control group (%): BG,KK-A^y mice; dose 1 mg/kg,−22%
same,Percent change of each parameter compared to control group (%): Ins,KK-A^y mice; dose 1 mg/kg,−67%
same,Percent change of each parameter compared to control group (%): TG,KK-A^y mice; dose 1 mg/kg,−29%
same,Percent change of each parameter compared to control group (%): HDL-C,KK-A^y mice; dose 1 mg/kg,19%
same,Percent change of each parameter compared to control group (%): (V)LDL-C,KK-A^y mice; dose 1 mg/kg,−38%
"Cc1ccc(-c2nc(CCCCCCOC(C)(C)c3nnn[nH]3)c(C)o2)cc1 [Example 86, 5-[1-Methyl-1-{6-[5-methyl-2-(p-tolyl)oxazol-4-yl]hexyloxy}ethyl]tetrazole]",melting point,,87 °C
"Cc1ccc(-c2nc(CCCCCCOC(C)(C)C#N)c(C)o2)cc1 [Example 85, 2-Methyl-2-{6-[5-methyl-2-(p-tolyl)oxazol-4-yl]-hexyloxy}propiononitrile]",melting point,,36 °C
"Cc1ccc(-c2nc(CCCCC3COC(C)(C(=O)O)OC3)c(C)o2)cc1 (stereo not shown) [Example 11, 2-Methyl-c-5-{4-[5-methyl-2-(p-tolyl)oxazol-4-yl]butyl}-1,3-dioxane-r-2-carboxylic acid]",Percent change of each parameter compared to control group (%): AI,KK-A^y mice; dose 3 mg/kg,−91%
same,Percent change of each parameter compared to control group (%): BG,KK-A^y mice; dose 3 mg/kg,−36%
same,Percent change of each parameter compared to control group (%): Ins,KK-A^y mice; dose 3 mg/kg,−16%
same,Percent change of each parameter compared to control group (%): TG,KK-A^y mice; dose 3 mg/kg,−83%
same,Percent change of each parameter compared to control group (%): HDL-C,KK-A^y mice; dose 3 mg/kg,11%
same,Percent change of each parameter compared to control group (%): (V)LDL-C,KK-A^y mice; dose 3 mg/kg,−89%
"CC(C)(OCCCCCCCCc1csc(-c2ccccc2)n1)C(=O)O [Example 50, 2-Methyl-2-[8-(2-phenylthiazol-4-yl)octyloxy]propionic acid]",melting point,,64 to 70 °C
"CC(C)(OCCCCCCCCc1coc(-c2ccccc2)n1)C(=O)O [Example 45, 2-Methyl-2-[8-(2-phenyloxazol-4-yl)octyloxy]propionic acid]",melting point,,59 to 61 °C
"Cc1oc(-c2ccc(C(F)(F)F)cc2)nc1CCCCC1COC(C)(C(=O)O)OC1 (stereo not shown) [Example 20, 2-Methyl-c-5-{4-[5-methyl-2-(4-trifluoromethylphenyl)-oxazol-4-yl]butyl}-1,3-dioxane-r-2-carboxylic acid]",Percent change of each parameter compared to control group (%): AI,KK-A^y mice; dose 1 mg/kg,−44%
same,Percent change of each parameter compared to control group (%): BG,KK-A^y mice; dose 1 mg/kg,−15%
same,Percent change of each parameter compared to control group (%): Ins,KK-A^y mice; dose 1 mg/kg,−44%
same,Percent change of each parameter compared to control group (%): TG,KK-A^y mice; dose 1 mg/kg,−31%
same,Percent change of each parameter compared to control group (%): HDL-C,KK-A^y mice; dose 1 mg/kg,30%
same,Percent change of each parameter compared to control group (%): (V)LDL-C,KK-A^y mice; dose 1 mg/kg,−33%
"CC(C)(OCCCCCCCc1coc(-c2ccc(Cl)cc2)n1)C(=O)O [Example 46, 2-{7-[2-(4-Chlorophenyl)oxazol-4-yl]heptyloxy}-2-methylpropionic acid]",melting point,,91 to 93 °C
"Cc1oc(-c2ccccc2)nc1CCCCCCOC(C)(C)CO [Example 55, 2-Methyl-2-[6-(5-methyl-2-phenyloxazol-4-yl)hexyloxy]-propanol]",Percent change of each parameter compared to control group (%): AI,KK-A^y mice; dose 10 mg/kg,−72%
same,Percent change of each parameter compared to control group (%): BG,KK-A^y mice; dose 10 mg/kg,−22%
same,Percent change of each parameter compared to control group (%): Ins,KK-A^y mice; dose 10 mg/kg,2%
same,Percent change of each parameter compared to control group (%): TG,KK-A^y mice; dose 10 mg/kg,−45%
same,Percent change of each parameter compared to control group (%): HDL-C,KK-A^y mice; dose 10 mg/kg,62%
same,Percent change of each parameter compared to control group (%): (V)LDL-C,KK-A^y mice; dose 10 mg/kg,−44%
